Laboratory results taken from patent US7407951B2, “Pyrrolobenzodiazepines” (Spirogen Limited, priority 2002, dated 2008).

Key:
Breast MACL MCF7 = test: In vitro clonogenic assay (two-layer agar), breast; assay type: cell-based, human; conditions: continuous exposure, 8-20 days, colony count
Protocol: (§1) In order to determine the activity of the compounds synthesised, solid human tumour xenografts growing subcutaneously in serial passages in thymus aplastic nude mice (Naval Medical Research Institute, USA nu/nu strain) were removed under sterile condition, mechanically disaggregated and subsequently incubated with an enzyme cocktail consisting of collagenase (41 U/ml, Sigma), DNAse I (125 U/ml, Roche), hyaluronidase (1000 U/ml, Sigma) and dispase II (1.0 U/ml) in RPMI 1640-Medium (Life Technologies) at 37° C. for 30 minutes. Cells were passed through sieves of 200 μm and 50 μm mesh size and washed twice with sterile PBS-buffer. The percentage of viable cells was determined in a Neubauer-hemocytometer using trypan blue exclusion. The cells generated were as follows: • Breast MACL MCF7 • […] • Lung 629L • Melanoma MEXF 462NL
(§2) The clonogenic assay was performed in a 24-well format according to a modified two-layer agar assay introduced by Hamburger, A. W. and Salmon, S. E., Science, 197, […] (1977). The bottom layer consisted of 0.2 ml/well of Iscove's Modified Dulbecco's Medium (supplemented with 20% fetal calf serum and 1% gentamicin) and 0.75% agar. 4×10^4 to 8×10^4 cells were added to 0.2 ml of the same culture medium supplemented with 0.4% agar and plated in 24-multiwell dishes onto the bottom layer. The test compounds were applied by continuous exposure (drug overlay) in 0.2 ml culture medium. Each dish included six control wells containing the vehicle and drug treated groups in triplicate at 6 concentrations. Cultures were incubated at 37° C. and 7.5% CO2 in a humidified atmosphere for 8-20 days and monitored closely for colony growth using an inverted microscope. Within this period, in vitro tumour growth led to the formation of colonies with a diameter of >50 μm. At the time of maximum colony formation, counts were performed with an automatic image analysis system (OMNICOM FAS IV, Biosys GmbH). 24 hours prior to evaluation, vital colnies were stained with a sterile aqueous solution of 2-(4-iodophenyl)-3-(4-nitrophenyl)-5-phenyltetrazolium chloride (1 mg/ml, 100 μl/well).
(§3) The IC50 values of the test compounds were determined by plotting compound concentration versus cell viability.

renal cell lines = test: NCI hollow fibre assay, renal variation; assay type: in vivo, human; conditions: three cell lines; for IP + SC score: combined score, 5 or more referred for xenograft testing; for IP score: intraperitoneal fibres in mice; for IP score / SC score: drug IP QDx4, 2 doses, 2 points per dose giving 50% or greater reduction in viable cell mass; for SC score: subcutaneous fibres in mice
Description: (§4) The Biological testing Branch of the Developmental Therapeutics Program of the NCI has adopted a preliminary in vivo screening tool for assessing the potential anticancer activity of compounds identified by the large scale in vitro cell screen. For these assays, human tumour cells are cultivated in polyvinylidene (PVDF) hollow fibres, and a sample of each cell line is implanted into each of two physiologic compartments (intraperitoneal and subcutaneaous) in mice. Each test mouse received a total of 6 fibres (3 intraperitoneally and 3 subcutaneously) representing 3 distinct cancer cell lines. These mice are treated with potential antitumour compounds at each of 2 test doses by the intraperitoneal route using a QD×4 treatment schedule. Vehicle controls consist of 6 mice receiving the compound diluent only. The fibre cultures are collected on the day following the last day of treatment. To assess anticancer effects, the viable cell mass is determined for each of the cell lines using a formazyn dye (MTT) conversion assay. From this, the % T/C can be calculated using the average optical density of compound treated samples divided by the average optical; density of the vehicle controls. In addition, the net increase in cell mass can be determined for each sample, as a sample of fibre cultures are assessed for viable cell mass on the day of implantation into mice. Thus, the cytostatic and cytocidal capacities of the test compound can be assessed.
(§5) Generally, each compound is tested against a minimum of 12 human cancer cell lines. This represents a total of 4 experiments since each experiment contains 3 cell lines. The data are reported as % T/C for each of the 2 compound doses against each of the cell lines with separate values calculated for the intraperitoneal and subcutaneous samples.
(§6) Compounds are selected for further in vivo testing in standard subcutaneous xenograft models on the basis of several hollow fibre assay criteria. These include: (1) a % T/C of 50 or less in 10 of the 48 possible test combinations (12 cell lines×2 sites ×2 compound doses); (2) activity at a distance (intraperitoneal drug/subcutaneous culture) in a minimum of 4 of the 24 possible combinations; and/or (3) a net cell kill of 1 or more of the cell lines in either implant site. To simplify evaluation, a points system has been adopted which allows rapid evaluation of the activity of a given compound. For this, a value of 2 is assigned for each compound dose which results in a 50% or greater reduction in viable cell mass. The intraperitoneal and subcutaneous samples are scored separately so that criteria (1) and (2) can be evaluated. Compounds with a combined IP+SC score of 20, a SC score of 8 or a net cell kill of one or more cell lines are referred for xenograft testing. […] In addition to these criteria, other factors (e.g. unique structure, mechanism of action) may result in referral of a compound for xenograft testing without the compound meeting these criteria.
(§7) Certain compounds of the invention were tested in variations of these assays, to assess their activity against renal and melanoma cell lines. In the melanoma assay, only 6 cell lines are used, and therefore compounds with a combined IP+SC score of 10 or a SC score of 4 are referred for xenograft testing. In the renal assay, only three cell lines are used and therefore compounds with a combined IP+SC score of 5 or a SC score of 2 are referred for xenograft testing.

melanoma cell lines = test: NCI hollow fibre assay, melanoma variation; assay type: in vivo, human; conditions: 6 cell lines; for IP + SC score: combined score, 10 or more referred for xenograft testing; for IP score: intraperitoneal fibres in mice; for IP score / SC score: drug IP QDx4, 2 doses, 2 points per dose giving 50% or greater reduction in viable cell mass; for SC score: subcutaneous fibres in mice
Description: as §4, §5, §6, §7

Renal RXF 944L = test: In vitro clonogenic assay (two-layer agar), renal; assay type: cell-based, human; conditions: continuous exposure, 8-20 days, colony count
Protocol: as §1, §2, §3

Lung 629L = test: In vitro clonogenic assay (two-layer agar), lung; assay type: cell-based, human; conditions: continuous exposure, 8-20 days, colony count
Protocol: as §1, §2, §3

Melanoma MEXF 462NL = test: In vitro clonogenic assay (two-layer agar), melanoma; assay type: cell-based, human; conditions: continuous exposure, 8-20 days, colony count
Protocol: as §1, §2, §3

[1] = test system: approximately 60 human tumour cell lines; test: NCI in vitro cytotoxicity screen (SRB assay); assay type: cell-based; conditions: GI50 in Moles, 48 hour continuous exposure
Protocol: The National Cancer Institute (NCI), Bethesda, Md. USA has available an in vitro cytotoxicity screen which consists of approximately 60 human tumour cell lines against which compounds are tested at a minimum of five concentrations each differing 10-fold. A 48 hour continuous exposure protocol is used, where cell viability or growth is estimated with an SRB protein assay.
The test compounds were evaluated against approximately 60 human tumour cell lines. The NCI screening procedures were described in detail by Monks and co-workers (Monks, A et al., Journal of the National Cancer Institute, 1991, 83, 757). Briefly, cell suspensions were diluted according to the particular cell type and the expected target cell density (5000-40,000 cells per well based on cell growth characteristics), and added by pipette (100 μL) into 96-well microtitre plates. The cells were allowed a preincubation period of 24 hours at 37° C. for stabilisation. Dilutions at twice the intended test concentration were added at time zero in 100 μL aliquots to the wells. The test compounds were evaluated at five 10-fold dilutions (10^−4, 10^−5, 10^−6, 10^−7 and 10^−[…]). The test compounds were incubated for 48 hours in 5% CO2 atmosphere and 100% humidity. The cells were then assayed using the sulphorhodamine B assay. […]

Row | Compound | IC50 (Breast MACL MCF7; Homo sapiens) [nM] | IP + SC score (renal cell lines) | IP score (renal cell lines) | SC score (renal cell lines) | IP + SC score (melanoma cell lines) | IP score (melanoma cell lines) | SC score (melanoma cell lines) | IC50 (Renal RXF 944L; Homo sapiens) [nM] | IC50 (Lung 629L; Homo sapiens) [nM] | also measured
1 | COc1cc2c(cc1OC)C(=O)N1C=C(c3ccc4ccccc4c3)C[C@H]1C=N2 [Compound 11, (11aS)-1,11a-dihydro-7,8-dimethoxy-2-(2-napthyl)-5H-pyrrolo[2,1-c][1,4]benzodiazepin-5-one] | 0.22 | – | – | – | – | – | – | – | – | –
2 | COc1cc2c(cc1OC)C(=O)N1C=C(c3ccc(C(C)(C)C)cc3)C[C@H]1C=N2 [Compound 13, (11aS)-1,11a-dihydro-7,8-dimethoxy-2-(4-tert-butylbenzene)-5H-pyrrolo[2,1-c][1,4]benzodiazepin-5-one] | – | 6 | 4 | 2 | 6 | 2 | 4 | – | – | IC50 (Breast MACL MCF7): 0.26 nM
3 | COc1cc2c(cc1OC)C(=O)N1C=C(c3ccc(Cl)cc3)C[C@H]1C=N2 [Compound 15, (11aS)-1,11a-dihydro-7,8-dimethoxy-2-(4-chlorobenzene)-5H-pyrrolo[2,1-c][1,4]benzodiazepin-5-one] | 0.15 | – | – | – | – | – | – | – | – | –
4 | COc1cc2c(cc1OC)C(=O)N1C=C(c3ccc(F)cc3)C[C@H]1C=N2 [Compound 17, (11aS)-1,11a-dihydro-7,8-dimethoxy-2-(4-fluorobenzene)-5H-pyrrolo[2,1-c][1,4]benzodiazepin-5-one] | – | – | – | – | – | – | – | 0.17 | – | –
5 | COc1cc2c(cc1OC)C(=O)N1C=C(c3ccccc3C)C[C@H]1C=N2 [Compound 19, (11aS)-1,11a-dihydro-7,8-dimethoxy-2-(2-methylbenzene)-5H-pyrrolo[2,1-c][1,4]benzodiazepin-5-one] | 0.35 | – | – | – | 8 | 4 | 4 | – | 1 | –
6 | CCc1ccc(C2=CN3C(=O)c4cc(OC)c(OC)cc4N=C[C@@H]3C2)cc1 [Compound 21, (11aS)-1,11a-dihydro-7,8-dimethoxy-2-(4-ethylbenzene)-5H-pyrrolo[2,1-c][1,4]benzodiazepin-5-one] | – | – | – | – | 10 | 10 | 0 | – | – | IC50 (Breast MACL MCF7): < 0.1 nM; IC50 (Renal RXF 944L): < 0.1 nM; IC50 (Lung 629L): 0.36 nM; IC50 (Melanoma MEXF 462NL): < 0.1 nM
7 | COc1cc2c(cc1OC)C(=O)N1C=C(c3cccs3)C[C@H]1C=N2 [Compound 23, (11aS)-1,11a-dihydro-7,8-dimethoxy-2-(2-thiophene)-5H-pyrrolo[2,1-c][1,4]benzodiazepin-5-one] | 0.35 | – | – | – | – | – | – | – | – | MG_MID (average log GI50 across all cell lines tested) [1]: −6.34
8 | COc1cc2c(cc1OC)C(=O)N1C=C(c3ccco3)C[C@H]1C=N2 [Compound 25, (11aS)-1,11a-dihydro-7,8-dimethoxy-2-(2-furan)-5H-pyrrolo[2,1-c][1,4]benzodiazepin-5-one] | – | – | – | – | – | – | – | – | – | MG_MID (average log GI50 across all cell lines tested) [1]: −7.18
9 | COc1cc2c(cc1OC)C(=O)N1C=C(c3c(C)cccc3C)C[C@H]1C=N2 [Compound 27, (11aS)-1,11a-dihydro-7,8-dimethoxy-2-(2,6-dimethylbenzene)-5H-pyrrolo[2,1-c][1,4]benzodiazepin-5-one] | – | 8 | 4 | 4 | – | – | – | – | – | –
10 | COc1cc2c(cc1OC)C(=O)N1C=C(c3ccccc3)C[C@H]1C=N2 [Compound C1, reference compound] | 19.3 | 0 | 0 | 0 | 4 | 4 | 0 | 20.5 | 44.5 | IC50 (Melanoma MEXF 462NL; Homo sapiens): 40 nM
11 | COc1ccc(C2=CN3C(=O)c4cc(OC)c(OC)cc4N=C[C@@H]3C2)cc1 [Compound C2] | 1.96 | – | – | – | – | – | – | 1.5 | 5 | IC50 (Melanoma MEXF 462NL; Homo sapiens): 2.85 nM
12 | COc1cc2c(cc1OC)C(=O)N1C=C(c3ccc(C)cc3)C[C@H]1C=N2 [Compound C3, reference compound] | 1.59 | 2 | 2 | 0 | 2 | 0 | 2 | 0.89 | 8 | IC50 (Melanoma MEXF 462NL; Homo sapiens): 2 nM
